Counter-ions that a name gives are not always drawn.
Legend:
[1] = target: T1, human adenosine A2a receptor (Homo sapiens, UniProt P29274); assay: Adenosine A2a Receptor Functional Assay (A2AGAL2); type: cell-based; conditions: CHO-K1 cells, cAMP inducible beta-galactosidase reporter, 15 nM NECA agonist challenge
T1 construct: expressed in transfected cells; host or cells: CHO-K1
Protocol: (§1) To initiate the functional assay, cryopreserved CHO-K1 cells overexpressing the human adenosine A2a receptor and containing a cAMP inducible beta-galactosidase reporter gene were thawed, centrifuged, DMSO containing media removed, and then seeded with fresh culture media into clear 384-well tissue culture treated plates (BD #353961) at a concentration of 10K cells/well. Prior to assay, these plates were cultured for two days at 37° C., 5% CO2, 90% Rh. On the day of the functional assay, culture media was removed and replaced with 45 uL assay medium (Hams/F-12 Modified (Mediatech #10-080CV) supplemented w/0.1% BSA). Test compounds were diluted and 11 point curves created at a 1000× concentration in 100% DMSO. Immediately after addition of assay media to the cell plates, 50 nL of the appropriate test compound antagonist or agonist control curves were added to cell plates using a Cartesian Hummingbird. Compound curves were allowed to incubate at room temperature on cell plates for approximately 15 minutes before addition of a 15 nM NECA (Sigma E2387) agonist challenge (5 uL volume). A control curve of NECA, a DMSO/Media control, and a single dose of Forskolin (Sigma F3917) were also included on each plate. After additions, cell plates were allowed to incubate at 37° C., 5% CO2, 90% Rh for 5.5-6 hours. After incubation, media was removed, and cell plates were washed 1×50 uL with DPBS w/o Ca & Mg (Mediatech 21-031-CV). Into dry wells, 20 uL of 1× Reporter Lysis Buffer (Promega E3971 (diluted in dH2O from 5× stock)) was added to each well and plates frozen at −20° C. overnight. For β-galactosidase enzyme calorimetric assay, plates were thawed out at room temperature and 20 μL 2× assay buffer (Promega) was added to each well. Color was allowed to develop at 37° C., 5% CO2, 90% Rh for 1-1.5 h or until reasonable signal appeared. The calorimetric reaction was stopped with the addition of 60 μL/well 1M sodium carbonate. Plates were counted at 405 nm on a SpectraMax Microplate Reader (Molecular Devices). Data was analyzed in Microsoft Excel and IC/EC50 curves were fit using a standardized macro.

[2] = target: T2, human adenosine A1 receptor (Homo sapiens, UniProt P30542); assay: Adenosine A1 Receptor Functional Assay (A1GAL2); type: cell-based; conditions: CHO-K1 cells, cAMP inducible beta-galactosidase reporter, 4nM r-PIA/1 uM Forskolin agonist challenge
T2 construct: expressed in transfected cells; host or cells: CHO-K1
T2 sequence (P30542 1-326): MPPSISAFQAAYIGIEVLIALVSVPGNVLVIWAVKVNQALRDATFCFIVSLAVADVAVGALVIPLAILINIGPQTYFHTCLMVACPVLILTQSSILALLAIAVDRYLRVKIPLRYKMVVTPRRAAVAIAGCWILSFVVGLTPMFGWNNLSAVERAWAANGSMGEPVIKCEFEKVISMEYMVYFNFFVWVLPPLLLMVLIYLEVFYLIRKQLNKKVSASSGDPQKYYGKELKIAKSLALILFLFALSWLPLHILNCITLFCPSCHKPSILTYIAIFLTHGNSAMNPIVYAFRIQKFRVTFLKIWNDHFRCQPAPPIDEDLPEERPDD
Protocol: as §1, with “A1” for “A2a”, “4nM r-PIA” for “15 nM NECA”, “P4532)/1 uM Forskolin (Sigma F3917)” for “E2387)”, “r-PIA in 1 uM Forskolin,” for “NECA,”, “Forskolin” for “Forskolin (Sigma F3917)”

T1 sequence (P29274 whole entry): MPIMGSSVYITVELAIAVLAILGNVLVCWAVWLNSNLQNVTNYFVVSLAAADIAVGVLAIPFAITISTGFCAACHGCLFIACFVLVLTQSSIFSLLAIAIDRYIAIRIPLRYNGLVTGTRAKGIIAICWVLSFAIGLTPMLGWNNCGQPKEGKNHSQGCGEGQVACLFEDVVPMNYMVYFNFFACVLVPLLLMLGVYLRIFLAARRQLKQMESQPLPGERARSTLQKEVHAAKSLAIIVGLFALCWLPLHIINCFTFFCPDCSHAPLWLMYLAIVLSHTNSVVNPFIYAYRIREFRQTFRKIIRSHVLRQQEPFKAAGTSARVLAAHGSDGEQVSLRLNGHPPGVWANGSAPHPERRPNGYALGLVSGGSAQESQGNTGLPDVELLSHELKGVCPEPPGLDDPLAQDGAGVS

## CC(C)c1ccc(-c2nc(N)c3cc(C(=O)N4CCOCC4)sc3n2)o1 [Example 30, [4-Amino-2-(5-isopropyl-furan-2-yl)-thieno[2,3-d]pyrimidin-6-yl]-morpholin-4-yl-methanone]
[1]
  Ki: 236 nM
[2]
  Ki: 522 nM

## N#Cc1cccc(-c2nc(N)c3cc(C(=O)NCCc4cccnc4)sc3n2)c1 [Example 16, 4-Amino-2-(3-cyano-phenyl)-thieno[2,3-d]pyrimidine-6-carboxylic acid(2-pyridin-3-yl-ethyl)-amide]
[1]
  Ki: 115 nM
[2]
  Ki: 467 nM

## N#Cc1cccc(-c2nc(N)c3cc(C(=O)NCCN4CCOCC4)sc3n2)c1 [Example 10, 4-Amino-2-(3-cyano-phenyl)-thieno[2,3-d]pyrimidine-6-carboxylic acid(2-morpholin-4-yl-ethyl)-amide]
[1]
  Ki: 34.7 nM
[2]
  Ki: 52.6 nM

## Cc1csc(-c2nc(N)c3cc(C(=O)NCc4cccnc4)sc3n2)n1 [Example 27, 4-Amino-2-(4-methyl-thiazol-2-yl)-thieno[2,3-d]pyrimidine-6-carboxylic acid(pyridin-3-ylmethyl)-amide]
[1]
  Ki: 40.3 nM
[2]
  Ki: 245 nM

## Cc1csc(-c2nc(N)c3cc(C(=O)NCCN4CCS(=O)(=O)CC4)sc3n2)n1 [Example 7, 4-Amino-2-(4-methyl-thiazol-2-yl)-thieno[2,3-d]pyrimidine-6-carboxylic acid[2-(1,1-dioxo-1-thiomorpholin-4-yl)-ethyl]-amide]
[1]
  Ki: 193 nM
[2]
  Ki: ~927 nM

## Cc1csc(-c2nc(N)c3cc(C(=O)NC4CCOCC4)sc3n2)n1 [Example 12, 4-Amino-2-(4-methyl-thiazol-2-yl)-thieno[2,3-d]pyrimidine-6-carboxylic acid(tetrahydro-pyran-4-yl)-amide]
[1]
  Ki: 21.9 nM
[2]
  Ki: 443 nM

## Cc1csc(-c2nc(N)c3cc(C(=O)NCc4ccc(Cl)nc4)sc3n2)n1 [Example 20, 4-Amino-2-(4-methyl-thiazol-2-yl)-thieno[2,3-d]pyrimidine-6-carboxylic acid(6-chloro-pyridin-3-yl-methyl)-amide hydrochloride]
[1]
  Ki: 109 nM
[2]
  Ki: 508 nM

## Nc1nc(-c2ncco2)nc2sc(C(=O)NC3CCOCC3)cc12 [Example 13, 4-Amino-2-oxazol-2-yl-thieno[2,3-d]pyrimidine-6-carboxylic acid(tetrahydro-pyran-4-yl)-amide]
[1]
  Ki: 99.2 nM
[2]
  Ki: > 1000 nM

## Nc1nc(-c2ncco2)nc2sc(C(=O)NCc3ccccn3)cc12 [Example 24, 4-Amino-2-oxazol-2-yl-thieno[2,3-d]pyrimidine-6-carboxylic acid(pyridin-2-ylmethyl)-amide]
[1]
  Ki: 137 nM
[2]
  Ki: 422 nM

## Nc1nc(-c2ncco2)nc2sc(C(=O)NCCN3CCOCC3)cc12 [Example 25, 4-Amino-2-oxazol-2-yl-thieno[2,3-d]pyrimidine-6-carboxylic acid(2-morpholin-4-yl-ethyl)-amide]
[1]
  Ki: 287 nM
[2]
  Ki: > 1310 nM

## Nc1nc(-c2ccc(C3CC3)o2)nc2sc(C(=O)N3CCOCC3)cc12 [Example 29, [4-Amino-2-(5-cyclopropyl-furan-2-yl)-thieno[2,3-d]pyrimidin-6-yl]-morpholin-4-yl-methanone]
[1]
  Ki: 236 nM
[2]
  Ki: > 1070 nM

## Cc1cc(-c2nc(N)c3cc(C(=O)NCc4cccnc4)sc3n2)no1 [Example 21, 4-Amino-2-(5-methyl-isoxazol-3-yl)-thieno[2,3-d]pyrimidine-6-carboxylic acid(pyridin-3-ylmethyl)-amide]
[1]
  Ki: 310 nM
[2]
  Ki: 26.9 nM

## Nc1nc(-c2ccc(C3CC3)o2)nc2sc(C(=O)NCc3cccnc3)cc12 [Example 14, 4-Amino-2-(5-cyclopropyl-furan-2-yl)-thieno[2,3-d]pyrimidine-6-carboxylic acid(pyridin-3-ylmethyl)-amide]
[1]
  Ki: 1550 nM
[2]
  Ki: > 610 nM

## CC(C)(C)N1CCN(C(=O)c2cc3c(N)nc(-c4cccc(C#N)c4)nc3s2)CC1 [Example 9, 3-[4-Amino-6-(4-tert-butyl-piperazine-1-carbonyl)-thieno[2,3-d]pyrimidin-2-yl]-benzonitrile]
[1]
  Ki: 94.2 nM
[2]
  Ki: 603 nM

## Cc1csc(-c2nc(N)c3cc(C(=O)N4CCN(Cc5ccccn5)CC4)sc3n2)n1 [Example 28, [4-Amino-2-(4-methyl-thiazol-2-yl)-thieno[2,3-d]pyrimidin-6-yl]-(4-pyridin-2-ylmethyl-piperazin-1-yl)-methanone]
[1]
  Ki: 160 nM
[2]
  Ki: > 1040 nM

## Nc1nc(-c2nc(C(F)(F)F)cs2)nc2sc(C(=O)N3CCOCC3)cc12 [Example 26, [4-Amino-2-(4-trifluoromethyl-thiazol-2-yl)-thieno[2,3-d]pyrimidin-6-yl]-morpholin-4-yl-methanone]
[1]
  Ki: 92.9 nM
[2]
  Ki: > 1310 nM

## Cc1csc(-c2nc(N)c3cc(C(=O)N4CCN(c5ccncc5)CC4)sc3n2)n1 [Example 8, [4-Amino-2-(4-methyl-thiazol-2-yl)-thieno[2,3-d]pyrimidin-6-yl]-(4-pyridin-4-yl-piperazin-1-yl)-methanone]
[1]
  Ki: 222 nM
[2]
  Ki: > 1070 nM

## Nc1nc(-c2ncco2)nc2sc(C(=O)N3CCOCC3)cc12 [Example 6, (4-Amino-2-oxazol-2-yl-thieno[2,3-d]pyrimidin-6-yl)-morpholin-4-yl-methanone]
[1]
  Ki: 361 nM
[2]
  Ki: > 10000 nM

## Cc1csc(-c2nc(N)c3cc(C(=O)N4CCN(C(C)(C)C)CC4)sc3n2)n1 [Example 23, [4-Amino-2-(4-methyl-thiazol-2-yl)-thieno[2,3-d]pyrimidin-6-yl]-(4-tert-butyl-piperazin-1-yl)-methanone]
[1]
  Ki: 367 nM
[2]
  Ki: > 1310 nM

## CCN1CCN(C(=O)c2cc3c(N)nc(-c4nc(C)cs4)nc3s2)CC1 [Example 18, [4-Amino-2-(4-methyl-thiazol-2-yl)-thieno[2,3-d]pyrimidin-6-yl]-(4-ethyl-piperazin-1-yl)-methanone hydrochloride]
[1]
  Ki: 195 nM
[2]
  Ki: > 948 nM

## C[C@@H]1CN(C(=O)c2cc3c(N)nc(-c4cccc(C#N)c4)nc3s2)C[C@H](C)O1 [Example 1, 3-[4-Amino-6-(2,6-dimethyl-morpholine-4-carbonyl)-thieno[2,3-d]pyrimidin-2-yl]-benzonitrile]
[1]
  Ki: 184 nM
[2]
  Ki: 598 nM

## Cc1csc(-c2nc(N)c3cc(C(=O)N4CCN(c5nccs5)CC4)sc3n2)n1 [Example 33, [4-Amino-2-(4-methyl-thiazol-2-yl)-thieno[2,3-d]pyrimidin-6-yl]-(4-thiazol-2-yl-piperazin-1-yl)-methanone]
[1]
  Ki: 81.9 nM
[2]
  Ki: 978 nM

— US20100093714A1, “AMIDES OF THIENO[2,3-d]PYRIMIDINE AND THEIR USE AS ADENOSINE A2a RECEPTOR ANTAGONISTS” (priority 2008, published 2010)
